# Where a SMILES comes first, the peptide text is derived from it. [ ]: non-standard residue; d: D form.
# Tests used:
# PTHR1 [1] = target: T1, PTHR1 (Homo sapiens, UniProt Q03431); test: Residual agonist activity, cAMP luminescence in GP-2.3 cells; format: cell-based; settings: ligands applied directly to GP-2.3 cells
# T1 construct: expressed in transfected cells; host or cells: GP-2.3 (HEK-293 stably transfected with hPTHR1 and GloSensor)
# T1 sequence (Q03431 27-593): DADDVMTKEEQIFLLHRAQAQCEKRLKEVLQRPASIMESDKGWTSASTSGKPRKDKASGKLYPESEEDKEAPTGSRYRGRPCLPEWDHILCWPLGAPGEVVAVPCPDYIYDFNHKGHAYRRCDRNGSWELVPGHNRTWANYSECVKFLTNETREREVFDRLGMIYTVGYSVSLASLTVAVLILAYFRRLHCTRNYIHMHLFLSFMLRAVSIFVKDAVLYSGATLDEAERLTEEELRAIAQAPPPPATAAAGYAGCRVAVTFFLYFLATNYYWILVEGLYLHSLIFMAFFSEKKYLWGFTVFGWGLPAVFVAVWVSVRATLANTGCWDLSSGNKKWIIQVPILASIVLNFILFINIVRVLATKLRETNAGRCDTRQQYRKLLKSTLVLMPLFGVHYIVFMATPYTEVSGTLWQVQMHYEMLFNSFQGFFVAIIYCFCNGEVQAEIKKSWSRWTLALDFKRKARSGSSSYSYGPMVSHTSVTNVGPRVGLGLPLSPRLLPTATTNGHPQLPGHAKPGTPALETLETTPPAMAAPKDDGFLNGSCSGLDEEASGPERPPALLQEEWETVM
# Experimental: cAMP signaling was assessed in the HEK293-derived or SaOS2-derived cell lines stably expressing the luciferase-based GloSensor™ cAMP reporter (Hattersley et al., Paper presented at: Novel Signaling Mechanisms and Bone Cell Biology 2014; Binkowski et al., Methods in molecular biology. 756:263-271). HEK-293 cells were further transfected to stably express the hPTHR1, hPTHR1-H223R, or hPTHR1-T410P. The cells were seeded into 96-well white plates and were assayed 24 to 48 hours post-confluency. Assays were performed at room temperature in CO2-independent culture media (Life Technologies, Corp., Carlsbad, Calif.) containing 0.1% BSA (CIDB). The cells were pre-loaded with luciferin (0.5 mM in CIDB) for 15 minutes, then PTH peptides were added at varying concentrations. cAMP-dependent luminescence was measured at two-minute intervals using a PerkinElmer Envision plate reader. The time at which maximum luminescence (cps) observed with agonist alone, typically at 10-20 minutes after agonist addition, was used to obtain data from wells containing antagonist with or without agonist, to thus generate antagonist ligand dose-response curves. The resulting cps values were then plotted against ligand concentration using GraphPad Prism 7.0 software and a four-parameter logistics curve fitting equation, which yielded parameters of inhibitory potency (pIC50).
# PTHR1 [2] = target: T2, PTHR1 (Mus musculus, UniProt P41593); test: Blood Ca2+ in wild-type mice after co-injection with PTH(1-34); format: in vivo; set-up: from tissue; host or cells: whole animal, wild-type mice (C57BL/6J per methods); settings: intravenous co-injection with PTH(1-34)
# T2 sequence (P41593 27-591): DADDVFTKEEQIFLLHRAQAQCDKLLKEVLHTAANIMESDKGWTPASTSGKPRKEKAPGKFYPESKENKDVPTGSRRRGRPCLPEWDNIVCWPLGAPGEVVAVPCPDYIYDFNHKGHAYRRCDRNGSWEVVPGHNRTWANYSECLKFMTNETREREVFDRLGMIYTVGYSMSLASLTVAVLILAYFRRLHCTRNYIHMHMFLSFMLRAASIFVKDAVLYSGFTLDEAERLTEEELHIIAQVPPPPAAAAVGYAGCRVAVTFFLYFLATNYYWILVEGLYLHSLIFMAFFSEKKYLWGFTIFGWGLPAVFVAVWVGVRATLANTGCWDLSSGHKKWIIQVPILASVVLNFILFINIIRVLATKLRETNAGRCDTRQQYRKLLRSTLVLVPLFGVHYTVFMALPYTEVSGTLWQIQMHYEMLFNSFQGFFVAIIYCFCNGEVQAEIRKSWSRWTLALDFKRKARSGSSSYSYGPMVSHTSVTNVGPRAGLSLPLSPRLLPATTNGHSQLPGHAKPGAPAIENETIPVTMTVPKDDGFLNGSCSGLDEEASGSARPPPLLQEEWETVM
# Description: Wilde-type, ca. 10-week old male C57BL/6J mice were purchased from the Charles River Laboratories (Wilmington, Mass., USA). The origin and method of breeding of Col1-H223R “Jansen's” transgenic mice is described by Calvi et al. (J. Clin. Invest., 107:277-286, 2001). Mice were maintained in facilities operated by the Center for Comparative Research of the Massachusetts General Hospital, and acclimated in the facilities for seven days prior to being used for study. All experimental procedures were approved by the MGH Institutional Animal Care and Use Committee (IACUC). In each study, animals were assigned randomly to treatment groups. Where possible, power calculations established that the number of animals used per study group was sufficient to detect statistically significant differences in intended primary experimental outcomes (i.e., changes in serum Ca and Pi).
# Mice were injected IV via the tail vein or subcutaneously with ligands in vehicle (0.05% Tween80; 10 mM citrate; 150 mM NaCl; pH 5.0) to give the intended final ligand dose (e.g. 50 nmol/kg body weight). At times immediately before (t=0) and after injection, tail vein blood was collected and analyzed for blood ionized calcium (Ca^2+) measured with a RAPIDLAB 348 analyzer (SIEMENS Healthcare Diagnostic, United Kingdom).
compound,measurement,setting,value
"CC[C@H](C)[C@H](N)C(=O)N[C@@H](CCC(N)=O)C(=O)N[C@@H](CC(C)C)C(=O)N[C@@H](CCSC)C(=O)N[C@@H](Cc1c[nH]cn1)C(=O)N[C@@H](CCC(N)=O)C(=O)N[C@@H](CCCNC(=N)N)C(=O)N[C@H](Cc1c[nH]c2ccccc12)C(=O)N[C@@H](CCCCN)C(=O)N[C@@H](Cc1c[nH]c2ccccc12)C(=O)N[C@H](C(=O)N[C@@H](CCC(N)=O)C(=O)N[C@@H](CC(=O)O)C(=O)N[C@@H](C)C(=O)N[C@@H](CCCNC(=N)N)C(=O)N[C@@H](CCCNC(=N)N)C(=O)N[C@@H](CCCNC(=N)N)C(=O)N[C@@H](C)C(=O)N[C@@H](Cc1c[nH]c2ccccc12)C(=O)N[C@@H](CC(C)C)C(=O)N[C@@H](Cc1c[nH]cn1)C(=O)N[C@@H](CCCCN)C(=O)N[C@@H](CC(C)C)C(=O)N[C@H](C(=O)N[C@@H](C)C(=O)N[C@@H](CCC(=O)O)C(=O)N[C@H](C(=O)N[C@@H](Cc1c[nH]cn1)C(=O)N[C@H](C(=O)N[C@@H](C)C(=O)N[C@@H](CCC(=O)O)C(=O)N[C@H](C(N)=O)[C@@H](C)CC)[C@@H](C)O)[C@@H](C)CC)[C@@H](C)CC)[C@@H](C)CC [compound 1949, dW12, W23-LA-PTH(5-36)] (H-IQLMHQR[dW]KWIQDARRRAWLHKLIAEIHTAEI-NH2; N-terminus assumed)",residual agonist activity compared with dTrp^12-PTH(7-34)-1894,PTHR1 [1],less residual agonist activity
same,effect on calcemic response to PTH(1-34) (FIG. 11),PTHR1 [2],inhibited the capacity of the injected PTH(1-34) agonist to induce a calcemic response
